Reference: paper PMC7417534, “Cytochrome P450 inhibition potential and initial genotoxic evaluation of 14-O-[(4,6-diaminopyrimidine-2-yl)thioacetyl] mutilin” (Scientific Reports, 2020)
Like-named read-outs stand apart in the source and are kept apart here.

Legend:
[1] = tested on: CYP3A; experiment: Cocktail CYP inhibition in rat liver microsomes, CYP3A (dapsone); assay type: in vitro ADME; conditions: probe dapsone (55 μM), cocktail method, read-out: IC50 values, CYP3A in RLMs
Protocol: (§1) We used the cocktail method to study the inhibition activities of DPTM against CYP enzymes in RLMs and HLMs with slight modification. DPTM (250 μmol) was dissolved in 1.25 mL methanol to a solution and then diluted with methanol and water to 2, 10, 20, 100, 200, 400, 1,000 and 2000 μM, respectively. The obtained serial dilutions (10 μL) were added to the incubation mixtures (200 μL total volume), containing 100 μL RLMs or HLMs (final concentration was 5 μg/μL, respectively), 10 μL glucose-6-phosphate (final concentration was 1 mM), 10 μL glucose-6-phosphate dehydrogenase (final concentration was 0.1 U/L), 20 μL potassium phosphate buffer (final concentration was 0.01 M) and 20 μL MgCl2 (final concentration was 2 mM), to give the final concentrations were 0.1, 0.5, 1, 5 10, 20, 50, and 100 μM, respectively. For the groups that in the absence of DPTM, 10 μL methanol (1%) replaced the DPTM and was added to the incubation mixtures. […] The final concentration of methanol in all the incubation mixtures, including the blank group, was […]. […] The determined metabolic substrates were used for calculating the relative enzyme activity (Erel) by the following formula: Erel (%) = Ci(n)/Ci(0) × 100%, in which Ci(n) was the determined metabolic substrates in the presence of varying concentrations of DPTM and Ci(0) was the determined metabolic substrates in the absence of DPTM. […]

[2] = molecular target: T1, CYP2E1 (Rattus norvegicus, UniProt P05182); experiment: Cocktail CYP inhibition in rat liver microsomes, CYP2E1 (chlorzoxazone); assay type: in vitro ADME; conditions: cocktail method, read-out: IC50 values, CYP2E1 in RLMs
T1 construct: containing 100 μL RLMs or HLMs; tissue Research Institute for Liver Diseases (Shanghai) Co., Ltd; host or cells: male SD rat liver microsomes
Protocol: as §1

[3] = tested on: S. typhimurium TA97; experiment: Ames test, strain TA97; assay type: cell-based, Salmonella typhimurium; conditions: − S9
Source text: (§2) S. typhimurium strains TA97, TA98, TA100, TA102 and TA1535 were stored and maintained as provided in the standard protocol. Each of the strains was checked for their genetic integrity prior to the experiment, and tested for biotin dependence, histidine dependence, biotin and histidine dependence, rfa marker (crystal violet) and presence of the plasmid pKM101 (ampicillin resistance) or pAQ1 (tetracycline resistance). Different strains were used to identify different types of mutations.
(§3) The test was carried out at five different concentrations of DPTM. […] Then 1 mL solution was diluted with distilled water by two fold. […] The negative control used in this experiment was 1 mL DMSO which was directly incorporated into 9 mL melted top agar.
(§4) The Ames test of DPTM was conducted as described in the literatures[42],[43] with some modifications. Briefly, 1 mL of strain was inoculated into 5 mL of nutrient broth, followed by incubating overnight at 37 °C. The mixture comprised respective strains, drug, negative and positive controls with the S9 for testing in the presence of metabolic activation system. For testing without S9, 1 × phosphate buffer saline (PBS, pH 7.4) replaced the S9 mix. The obtained mixtures were added into the tube, mixed well and incubated at 37 °C for 20 min. Then, the top agar was melted and 2 mL of this melted top agar was added to each tube and gently mixed. […] The results were expressed as the number of revertant colonies per plate. The experiments were performed in triplicate.

[4] = tested on: CYP2D6 mRNA; experiment: CYP2D6 mRNA expression in Hep G2 cells (real-time PCR); assay type: cell-based, human; conditions: 12 h
Protocol: The logarithmic growth phase Hep G2 cells were seeded into 12-well plastic plates at a density of […]. After incubation at 37 °C under 5% CO2 for 24 h, the media were then replaced with 1 mL of serial dilutions of the DPTM (4.98, 0.16 and 0.08 mM) in fresh media. When cells were incubated for 2, 4 and 12 h at 37 °C under 5% CO2, the RNA was isolated using the Trizol reagent according to the manufacturer’s protocol. Total RNA (5 μL) was transcribed into cDNA by using the PrimeScript RT reagent Kit (Perfect Real Time). The obtained cDNA (5 μL) was added for 45 cycles of PCR amplification to detect the mRNA expression (the primers and sequences used herein were given in Table 3) using the ABI Villa TM7Dx real-time PCR system (Gaithersburg, USA). Glyceraldehyde-3-phosphate dehydrogenase (GAPDH) was used as reference gene. All reactions were performed in a final volume of 20 μL (10 μL of 2 × SYBR Green Real-time PCR Master Mix, 2 μL of cDNA and 2 μL of the primers and 6 μL DEPC water) and executed in triplicate.

[5] = tested on: S. typhimurium TA98; experiment: Ames test, strain TA98; assay type: cell-based, Salmonella typhimurium; conditions: − S9
Source text: as §2, §3, §4

[6] = molecular target: T2, CYP3A4 (Homo sapiens, UniProt P08684); experiment: Cocktail CYP inhibition in human liver microsomes, CYP3A4 (dapsone); assay type: in vitro ADME; conditions: cocktail method, read-out: IC50 values, CYP3A4 in HLMs
T2 construct: containing 100 μL RLMs or HLMs; tissue Research Institute for Liver Diseases (Shanghai) Co., Ltd; host or cells: pooled human liver microsomes
Protocol: as §1

[7] = molecular target: T3, CYP2C11 (Rattus norvegicus, UniProt P08683); experiment: Cocktail CYP inhibition in rat liver microsomes, CYP2C11 (tolbutamide); assay type: in vitro ADME; conditions: cocktail method, read-out: IC50 values, CYP2C11 in RLMs
T3 construct: containing 100 μL RLMs or HLMs; tissue Research Institute for Liver Diseases (Shanghai) Co., Ltd; host or cells: male SD rat liver microsomes
Protocol: as §1

[8] = tested on: S. typhimurium TA102; conditions: − S9
Source text: as §2
The test was carried out at five different concentrations of DPTM. […] Then 1 mL solution was diluted with distilled water by two fold.
as §4

[9] = molecular target: T4, CYP2D6 (Homo sapiens, UniProt P10635); experiment: Cocktail CYP inhibition in human liver microsomes, CYP2D6 (metoprolol); assay type: in vitro ADME; conditions: cocktail method, read-out: IC50 values, CYP2D6 in HLMs
T4 construct: containing 100 μL RLMs or HLMs; tissue Research Institute for Liver Diseases (Shanghai) Co., Ltd; host or cells: pooled human liver microsomes
Protocol: as §1

[10] = molecular target: T5, CYP2D1 (Rattus norvegicus, UniProt P10633); experiment: Cocktail CYP inhibition in rat liver microsomes, CYP2D1 (metoprolol); assay type: in vitro ADME; conditions: cocktail method, read-out: IC50 values, CYP2D1 in RLMs
T5 construct: containing 100 μL RLMs or HLMs; tissue Research Institute for Liver Diseases (Shanghai) Co., Ltd; host or cells: male SD rat liver microsomes
Protocol: as §1

T2 sequence (P08684 whole entry): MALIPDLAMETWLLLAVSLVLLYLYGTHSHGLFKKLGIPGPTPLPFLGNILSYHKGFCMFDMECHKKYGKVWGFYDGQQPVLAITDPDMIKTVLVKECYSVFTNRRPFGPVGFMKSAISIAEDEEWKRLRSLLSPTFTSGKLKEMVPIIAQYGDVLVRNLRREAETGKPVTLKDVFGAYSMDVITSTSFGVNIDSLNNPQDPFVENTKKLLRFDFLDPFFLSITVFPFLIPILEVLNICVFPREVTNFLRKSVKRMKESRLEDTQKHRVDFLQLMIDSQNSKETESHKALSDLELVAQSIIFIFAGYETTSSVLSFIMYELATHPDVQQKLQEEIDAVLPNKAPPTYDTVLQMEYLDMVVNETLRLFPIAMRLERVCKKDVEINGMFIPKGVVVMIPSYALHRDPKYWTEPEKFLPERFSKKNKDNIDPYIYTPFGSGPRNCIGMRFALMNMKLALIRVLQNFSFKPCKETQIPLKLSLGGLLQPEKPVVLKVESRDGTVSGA
T4 sequence (P10635 whole entry): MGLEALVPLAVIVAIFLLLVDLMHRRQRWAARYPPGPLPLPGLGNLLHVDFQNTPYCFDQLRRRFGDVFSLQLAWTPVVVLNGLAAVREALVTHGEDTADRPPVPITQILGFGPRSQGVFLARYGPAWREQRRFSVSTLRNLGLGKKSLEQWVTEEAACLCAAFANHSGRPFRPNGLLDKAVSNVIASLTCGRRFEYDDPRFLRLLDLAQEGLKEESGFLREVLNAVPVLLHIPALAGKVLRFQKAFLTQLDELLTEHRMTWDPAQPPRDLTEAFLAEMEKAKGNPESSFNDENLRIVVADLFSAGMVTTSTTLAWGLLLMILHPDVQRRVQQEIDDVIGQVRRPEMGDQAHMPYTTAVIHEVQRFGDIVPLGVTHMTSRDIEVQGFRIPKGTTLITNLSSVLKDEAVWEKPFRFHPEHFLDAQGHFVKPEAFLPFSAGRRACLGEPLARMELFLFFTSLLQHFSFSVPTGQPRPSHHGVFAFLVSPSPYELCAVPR
T3 sequence (P08683 whole entry): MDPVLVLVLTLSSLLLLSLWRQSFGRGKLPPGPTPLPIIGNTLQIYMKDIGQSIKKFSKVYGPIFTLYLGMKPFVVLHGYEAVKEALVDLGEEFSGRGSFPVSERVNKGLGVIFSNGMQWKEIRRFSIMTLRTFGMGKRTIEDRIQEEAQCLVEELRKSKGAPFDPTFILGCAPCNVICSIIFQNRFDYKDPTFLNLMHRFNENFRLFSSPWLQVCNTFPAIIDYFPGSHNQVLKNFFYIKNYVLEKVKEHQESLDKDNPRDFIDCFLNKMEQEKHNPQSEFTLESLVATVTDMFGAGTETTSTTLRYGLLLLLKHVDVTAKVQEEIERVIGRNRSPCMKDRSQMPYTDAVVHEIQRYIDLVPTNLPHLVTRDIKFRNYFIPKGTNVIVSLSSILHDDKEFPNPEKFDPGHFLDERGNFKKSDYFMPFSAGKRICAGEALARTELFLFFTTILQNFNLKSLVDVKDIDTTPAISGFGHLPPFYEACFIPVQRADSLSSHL
T1 sequence (P05182 whole entry): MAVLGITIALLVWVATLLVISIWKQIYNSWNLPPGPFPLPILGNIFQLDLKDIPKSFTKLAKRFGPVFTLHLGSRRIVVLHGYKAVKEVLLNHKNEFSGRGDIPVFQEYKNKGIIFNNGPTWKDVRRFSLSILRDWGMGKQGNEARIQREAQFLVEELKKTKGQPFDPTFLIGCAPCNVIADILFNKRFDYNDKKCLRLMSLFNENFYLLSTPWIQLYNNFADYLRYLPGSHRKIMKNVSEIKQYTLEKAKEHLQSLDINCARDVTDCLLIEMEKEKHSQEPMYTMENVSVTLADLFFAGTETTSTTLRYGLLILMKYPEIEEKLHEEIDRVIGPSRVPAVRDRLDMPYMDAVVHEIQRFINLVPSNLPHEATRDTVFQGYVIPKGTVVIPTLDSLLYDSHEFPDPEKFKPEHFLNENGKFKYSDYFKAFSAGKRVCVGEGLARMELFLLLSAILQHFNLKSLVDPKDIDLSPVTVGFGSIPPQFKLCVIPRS
T5 sequence (P10633 whole entry): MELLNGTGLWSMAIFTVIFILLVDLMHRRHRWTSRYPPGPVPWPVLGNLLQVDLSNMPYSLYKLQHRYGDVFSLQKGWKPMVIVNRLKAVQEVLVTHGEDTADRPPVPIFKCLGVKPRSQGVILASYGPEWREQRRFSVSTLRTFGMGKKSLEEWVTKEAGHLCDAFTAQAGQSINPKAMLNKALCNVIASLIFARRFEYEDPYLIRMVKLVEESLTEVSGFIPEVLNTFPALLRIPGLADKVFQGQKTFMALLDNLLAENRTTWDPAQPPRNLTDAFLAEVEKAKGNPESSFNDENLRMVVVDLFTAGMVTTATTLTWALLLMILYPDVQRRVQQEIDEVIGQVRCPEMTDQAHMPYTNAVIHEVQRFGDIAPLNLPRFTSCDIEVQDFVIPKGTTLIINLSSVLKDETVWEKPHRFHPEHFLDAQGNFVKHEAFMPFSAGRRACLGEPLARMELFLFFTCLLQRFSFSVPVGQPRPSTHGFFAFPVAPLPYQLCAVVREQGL

C=CC1(C)CC(OC(=O)CSc2nc(N)cc(N)n2)C2(C)C(C)CCC3(CCC(=O)C32)C(C)C1O (stereo not drawn) [DPTM, 14-O-[(4,6-Diaminopyrimidine-2-yl)thioacetyl] mutilin]
IC50 at 15 min [1]: 10 ± 2 µM
IC50 [2]: 61 ± 8 µM
revertant colonies per plate, TA97 ([3]; dose 0.50 μmol/plate): 165 ± 14 CFU
revertant colonies per plate, TA97 ([3]; dose 1.00 μmol/plate): 171 ± 8 CFU
revertant colonies per plate, TA97 ([3]; dose 1.99 μmol/plate): 174 ± 17 CFU
revertant colonies per plate, TA97 ([3]; dose 3.98 μmol/plate): 169 ± 14 CFU
CYP2D6 mRNA expression versus control [4]: significantly lowered
revertant colonies per plate, TA98 ([5]; dose 0.25 μmol/plate): 33 ± 6 CFU
revertant colonies per plate, TA98 ([5]; dose 0.50 μmol/plate): 30 ± 10 CFU
revertant colonies per plate, TA98 ([5]; dose 1.00 μmol/plate): 27 ± 8 CFU
revertant colonies per plate, TA98 ([5]; dose 1.99 μmol/plate): 32 ± 8 CFU
revertant colonies per plate, TA98 ([5]; dose 3.98 μmol/plate): 28 ± 11 CFU
IC50 [6]: 8 ± 2 µM
IC50 [7]: > 100 µM
revertant colonies per plate, TA102 ([8]; dose 0.25 μmol/plate): 256 ± 20 CFU
revertant colonies per plate, TA102 ([8]; dose 0.50 μmol/plate): 241 ± 10 CFU
revertant colonies per plate, TA102 ([8]; dose 1.00 μmol/plate): 260 ± 17 CFU
revertant colonies per plate, TA102 ([8]; dose 1.99 μmol/plate): 264 ± 15 CFU
revertant colonies per plate, TA102 ([8]; dose 3.98 μmol/plate): 268 ± 12 CFU
IC50 [9]: > 100 µM
IC50 [10]: > 100 µM
